Experiments:
[1] = target: T1, T7 RNA polymerase (Escherichia phage T7, UniProt P00573); assay: In vitro transcription yield of mRNA using cap analogs; format: biochemical; details: for Yield per unit template: in vitro transcription, 1 μg DNA template, 37° C., 2 hours
Experimental: • (1) Capping synthesis using cap analogs
The plasmid was first linearized with plasmid linearizing enzyme, and then the linearized plasmid was purified. • (2) In vitro transcription and synthesis of mRNA
(§1) During the experiment, the volume of materials required for the system was first calculated, and then sample addition was conducted. The system was first added with sterile enzyme-free water, followed by the sequential addition of 10× buffer, NTPs, and cap analogs, mixed well, and gently centrifuged. Nuclease inhibitors, inorganic pyrophosphatase, T7RNA polymerase, and linearized DNA templates were then added thereto. The system was mixed well, gently centrifuged, and incubated at 37° C. After 2 hours of incubation, the system was added with 1 U of DNase I and incubated at 37° C. for another 30 minutes. The mRNA precipitate was then washed with 75% ethanol, and after the ethanol was briefly evaporated to dryness, the mRNA was redissolved in sterile enzyme-free water. • (3) The transcription product was purified, and the in vitro transcription yield of mRNA was recorded. • (4) The obtained mRNA was subjected to an annealing reaction with a probe.

[2] = target: T1, T7 RNA polymerase; assay: Capping rate of mRNA transcription initiated by cap analogs (LC-MS); format: biochemical; details: for Capping rate: LC-MS of mRNA 5′ fragment
Experimental: as §1
The annealing reaction was performed in a PCR instrument: 95° C. for 5 minutes; 65° C. for 2 minutes; 55° C. for 2 minutes; 40° C. for 2 minutes; 22° C. for 2 minutes. • (5) Magnetic bead pretreatment and probe binding: 100 μL of magnetic beads was placed on a magnetic frame for pretreatment. The magnetic bead solution was added with 120 μL of sample and incubated at room temperature for 30 minutes with slow mixing. • (6) mRNA splicing and obtaining the mRNA 5′ single-strand sequence bound to the probe
The mixture was added with 20 μL of RNase H (5 U/μL) and incubated at 37° C. for 3 hours with mixing every half hour. After incubation, the magnetic beads were washed and then added with 100 μL of 75% methanol heated to 80° C. The mixture was heated to 80° C. on a heating plate, held for 3 minutes, then placed on a magnetic frame to aspirate the supernatant, and dried at room temperature for 45 minutes to a volume of 10 μL using a centrifugal evaporator. The sample was then resuspended in 50 μL of 100 μM EDTA/1% MeOH and ready for LC-MS analysis to determine the capping of RNA in the transcription reaction. Since there is a significant difference in molecular weight between capped and uncapped bases, the capping rate of mRNA transcription initiated by different cap analogs can be determined based on the difference in molecular mass.

[3] = test system: HEK293T cells; assay: Translation efficiency of different capped luciferase mRNAs; format: cell-based; details: for Relative fluorescence intensity: HEK293T, 0.5 μg mRNA per well, 24 hours, proportional to translation efficiency; for Multiple of m6A (relative fluorescence intensity): relative to m6A
Experimental: • (1) HEK293T cells were cultured in DMEM medium containing 10% FBS and penicillin/streptomycin at 37° C. with 5% CO2. • (2)Cells in the culture dish were digested and counted, then spread in a 96-well plate at 10,000 cells per well, and cultured overnight until the cells adhered to the wall. • (3) When the cell density reached approximately 80%, transfection was performed by adding 0.5 μg of mRNA sample and Lipofectamine MessengerMAX Transfection Reagent (Invitrogen) per well according to the manufacturer's instructions. • (4) After the transfected cells were cultured at 37° C. with 5% CO2 for 24 hours, the growth medium was removed from the cells to be tested, and the cells were rinsed with PBS. After centrifugation to remove PBS, 50 μL of 1× lysis buffer was added. The cells and all liquid were transferred to a microcentrifuge tube and centrifuged. • (5) 20 μL of sample was taken and added to 100 μL of Dual-Lumi™ II Luciferase Assay Reagent pre-equilibrated to room temperature, and mixed appropriately. • (6) The mixture was incubated at room temperature (approximately 25° C.) for 5 minutes to stabilize the luminescence signal. Chemiluminescence was detected using a multifunctional microplate reader with a function for detecting chemiluminescence, and the data were recorded.
The relative fluorescence intensity is proportional to the translation efficiency of mRNA.

[4] = target: T2, DCP2 enzyme (Schizosaccharomyces pombe, UniProt O13828); assay: Decapping enzyme stability test; format: biochemical; details: for Decapping rate (%) of DCP2 enzyme: 50 U mRNA decapping enzyme, 37° C., 45 minutes
T2 construct: purchased New England Biolabs
T2 sequence (O13828 1-243 limits assumed): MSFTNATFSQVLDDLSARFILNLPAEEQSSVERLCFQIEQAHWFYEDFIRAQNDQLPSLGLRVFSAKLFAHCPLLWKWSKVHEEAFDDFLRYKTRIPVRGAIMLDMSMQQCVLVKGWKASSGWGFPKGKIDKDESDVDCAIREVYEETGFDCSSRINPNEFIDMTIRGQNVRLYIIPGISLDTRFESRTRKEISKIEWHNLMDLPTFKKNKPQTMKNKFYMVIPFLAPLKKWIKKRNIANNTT
T2 sequence (Q9P805 1-127 partner): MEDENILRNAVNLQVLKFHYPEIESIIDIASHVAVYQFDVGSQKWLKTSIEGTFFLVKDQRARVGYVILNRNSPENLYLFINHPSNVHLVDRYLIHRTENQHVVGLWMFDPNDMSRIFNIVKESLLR
T2 sequence (Q10108 155-180 partner limits assumed): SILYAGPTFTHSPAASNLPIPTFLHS
Experimental: […] of RNA purified by polyacrylamide gel electrophoresis (PAGE) was subjected to an enzymatic reaction with 50 U of mRNA decapping enzyme (New England Biolabs) and 1×MDE buffer at 37° C. for 45 minutes. The enzymatic reactants were subjected to PAGE and stained with SYBR Green II (Lonza), followed by observation of the post-electrophoresis gel image on a Typhoon FLA 7000 (GE Healthcare) instrument. The electrophoresis band intensity ratio of RNA capping to RNA decapping was counted using ImageQuant (GE Healthcare) software, and the decapping rate of the decapping enzyme was calculated.

T1 sequence (P00573 whole entry): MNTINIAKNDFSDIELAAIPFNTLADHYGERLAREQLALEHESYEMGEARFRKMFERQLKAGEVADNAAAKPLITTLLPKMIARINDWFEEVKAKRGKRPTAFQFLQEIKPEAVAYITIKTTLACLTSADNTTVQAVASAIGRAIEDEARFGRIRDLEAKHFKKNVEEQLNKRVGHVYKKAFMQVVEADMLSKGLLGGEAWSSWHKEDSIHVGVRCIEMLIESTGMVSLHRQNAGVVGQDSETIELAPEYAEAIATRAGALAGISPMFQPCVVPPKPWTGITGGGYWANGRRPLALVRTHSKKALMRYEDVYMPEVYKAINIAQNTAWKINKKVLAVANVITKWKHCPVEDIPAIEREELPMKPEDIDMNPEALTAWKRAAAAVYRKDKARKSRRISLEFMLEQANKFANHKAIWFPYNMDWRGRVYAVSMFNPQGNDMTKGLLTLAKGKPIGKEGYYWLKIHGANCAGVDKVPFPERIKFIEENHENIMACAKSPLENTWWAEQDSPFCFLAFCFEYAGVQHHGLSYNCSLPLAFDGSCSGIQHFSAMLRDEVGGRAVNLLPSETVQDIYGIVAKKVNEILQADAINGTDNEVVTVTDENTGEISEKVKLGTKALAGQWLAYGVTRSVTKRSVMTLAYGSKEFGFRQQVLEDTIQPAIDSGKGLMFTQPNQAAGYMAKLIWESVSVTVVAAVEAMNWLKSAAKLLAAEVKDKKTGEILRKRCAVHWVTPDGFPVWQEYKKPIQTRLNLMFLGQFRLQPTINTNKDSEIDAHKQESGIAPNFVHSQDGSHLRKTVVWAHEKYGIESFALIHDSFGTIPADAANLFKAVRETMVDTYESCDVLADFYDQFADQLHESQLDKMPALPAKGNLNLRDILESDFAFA

CO[C@@H]1[C@H](OP(=O)(O)OC[C@H]2O[C@@H](n3cnc4c(=O)[nH]c(N)nc43)[C@H](O)[C@@H]2O)[C@@H](COP(=O)(O)OP(=O)(O)OP(=O)(O)OC[C@H]2OC([n+]3cn(C)c4c(=O)[nH]c(N)nc43)[C@H](O)[C@@H](O)[C@@H]2O)O[C@H]1n1cnc2c(N)ncnc21 (stereo partly shown) [YK-CAP-101]
Yield per unit template [1]: 32.5 µg | Increase relative to 5227 (in vitro transcription yield) [1]: −75.8% | Capping rate [2]: 42.8% | Increase relative to 5227 (capping rate) [2]: −40.5% | Relative fluorescence intensity [3]: 0.22 | Multiple of m6A (relative fluorescence intensity) [3]: 0.6 | Decapping rate (%) of DCP2 enzyme [4]: 32.4% | Decrease relative to N-7113 (decapping rate) [4]: 11.4%

CO[C@@H]1[C@H](OP(=O)(O)OC[C@H]2O[C@@H](n3cnc4c(=O)[nH]c(N)nc43)[C@H](O)[C@@H]2O)[C@@H](COP(=O)(O)OP(=O)(O)OP(=O)(O)OC[C@H]2O[C@@H]([n+]3cn(C)c4c(=O)[nH]c(N)nc43)[C@H](O)[C@]2(C)NC(C)=O)O[C@H]1n1cnc2c(N)ncnc21 [YK-CAP-106]
Yield per unit template [1]: 155.5 µg | Increase relative to 5227 (in vitro transcription yield) [1]: 15.9% | Capping rate [2]: 95.3% | Increase relative to 5227 (capping rate) [2]: 32.5% | Relative fluorescence intensity [3]: 1.53 | Multiple of m6A (relative fluorescence intensity) [3]: 4.0 | Decapping rate (%) of DCP2 enzyme [4]: 17.3% | Decrease relative to N-7113 (decapping rate) [4]: 26.5%

COC(C)[C@H]1[C@@H](O)[C@H]([n+]2cn(C)c3c(=O)[nH]c(N)nc32)O[C@@H]1COP(=O)(O)OP(=O)(O)OP(=O)(O)OC[C@H]1O[C@@H](n2cnc3c(N)ncnc32)[C@H](OC)[C@@H]1OP(=O)(O)OC[C@H]1O[C@@H](n2cnc3c(=O)[nH]c(N)nc32)[C@H](O)[C@@H]1O (stereo partly shown) [YK-CAP-107]
Yield per unit template [1]: 170.7 µg | Increase relative to 5227 (in vitro transcription yield) [1]: 27.2% | Capping rate [2]: 97.3% | Increase relative to 5227 (capping rate) [2]: 35.3% | Relative fluorescence intensity [3]: 1.62 | Multiple of m6A (relative fluorescence intensity) [3]: 4.3 | Decapping rate (%) of DCP2 enzyme [4]: 11.5% | Decrease relative to N-7113 (decapping rate) [4]: 32.3%

CO[C@@H]1[C@H](OP(=O)(O)OC[C@H]2O[C@@H](n3cnc4c(=O)[nH]c(N)nc43)[C@H](O)[C@@H]2O)[C@@H](COP(=O)(O)OP(=O)(O)OP(=O)(O)OC[C@H]2O[C@@H]([n+]3cn(C)c4c(=O)[nH]c(N)nc43)[C@H](O)[C@@H]2C(C)NC(C)=O)O[C@H]1n1cnc2c(N)ncnc21 (stereo partly shown) [YK-CAP-108]
Yield per unit template [1]: 151.8 µg | Increase relative to 5227 (in vitro transcription yield) [1]: 13.1% | Capping rate [2]: 95.8% | Increase relative to 5227 (capping rate) [2]: 33.2% | Relative fluorescence intensity [3]: 1.43 | Multiple of m6A (relative fluorescence intensity) [3]: 3.8 | Decapping rate (%) of DCP2 enzyme [4]: 16.3% | Decrease relative to N-7113 (decapping rate) [4]: 27.5%

CO[C@@H]1[C@H](OP(=O)(O)OC[C@H]2O[C@@H](n3cnc4c(=O)[nH]c(N)nc43)[C@H](O)[C@@H]2O)[C@@H](COP(=O)(O)OP(=O)(O)OP(=O)(O)OC[C@H]2O[C@@H]([n+]3cn(C)c4c(=O)[nH]c(N)nc43)[C@H](O)[C@@H]2C(C)F)O[C@H]1n1cnc2c(N)ncnc21 (stereo partly shown) [YK-CAP-109]
Yield per unit template [1]: 168.1 µg | Increase relative to 5227 (in vitro transcription yield) [1]: 25.3% | Capping rate [2]: 95.2% | Increase relative to 5227 (capping rate) [2]: 32.4% | Relative fluorescence intensity [3]: 1.53 | Multiple of m6A (relative fluorescence intensity) [3]: 4.0 | Decapping rate (%) of DCP2 enzyme [4]: 17.3% | Decrease relative to N-7113 (decapping rate) [4]: 26.5%

CO[C@@H]1[C@H](OP(=O)(O)OC[C@H]2O[C@@H](n3cnc4c(=O)[nH]c(N)nc43)[C@H](O)[C@@H]2O)[C@@H](COP(=O)(O)OP(=O)(O)OP(=O)(O)OC[C@H]2O[C@@H]([n+]3cn(C)c4c(=O)[nH]c(N)nc43)[C@H](O)[C@@H]2C(F)F)O[C@H]1n1cnc2c(N)ncnc21 [YK-CAP-110]
Yield per unit template [1]: 172.1 µg | Increase relative to 5227 (in vitro transcription yield) [1]: 28.2% | Capping rate [2]: 97.4% | Increase relative to 5227 (capping rate) [2]: 35.5% | Relative fluorescence intensity [3]: 1.95 | Relative fluorescence intensity, times that of HN3002 ([3]; relative to HN3002): 1.7 times | Relative fluorescence intensity, times that of N-7113 ([3]; relative to N-7113): 1.9 times | Relative fluorescence intensity (translation efficiency), times that of YK-CAP-101 ([3]; relative to YK-CAP-101): 8.9 times | Relative fluorescence intensity, times that of YK-CAP-102 ([3]; relative to YK-CAP-102): 5.7 times | Relative fluorescence intensity, times that of YK-CAP-103 ([3]; relative to YK-CAP-103): 2.5 times | Relative fluorescence intensity, times that of YK-CAP-104 ([3]; relative to YK-CAP-104): 2.4 times | Relative fluorescence intensity, times that of YK-CAP-105 ([3]; relative to YK-CAP-105): 2.7 times | Relative fluorescence intensity, times that of compound 14 ([3]; relative to compound 14): 1.7 times | Multiple of m6A (relative fluorescence intensity) [3]: 5.1 | Decapping rate (%) of DCP2 enzyme [4]: 10.2% | Decapping rate lower than that of HN3002 ([4]; relative to HN3002): 13.1% | Decrease relative to N-7113 (decapping rate) [4]: 33.6% | Decapping rate lower than that of YK-CAP-101 ([4]; relative to YK-CAP-101): 22.2% | Decapping rate lower than that of YK-CAP-102 ([4]; relative to YK-CAP-102): 31.0% | Decapping rate lower than that of YK-CAP-103 ([4]; relative to YK-CAP-103): 26.3% | Decapping rate lower than that of YK-CAP-104 ([4]; relative to YK-CAP-104): 35.9% | Decapping rate lower than that of YK-CAP-105 ([4]; relative to YK-CAP-105): 23.7% | Decapping rate lower than that of compound 14 ([4]; relative to compound 14): 16.6% | Decapping rate lower than that of m6A ([4]; relative to m6A): 23.6%

Source: patent US12576099B2, “Ribose-modified cap analog and use thereof” (Beijing Youcare Kechuang Pharmaceutical Technology Co., Ltd., priority 2024, dated 2026)
